Source: patent US5175163A, “Triazolyl thioamide derivates” (Egis Gyogyszergyar, priority 1989, dated 1992)
Where two headings read alike, the source gives them in different places.

How the values were obtained:
reserpine ptosis on mice = test: Antagonism of reserpine ptosis on mice; conditions: for ED50: Mus musculus, sc; for Therapeutical index: reserpine ptosis, mice, Table II
Method: Groups consisting of 10 mice each were treated with 6 mg/kg of reserpine, subcutaneously, according to the method of Hoffmeister et. al. [Arzneim. […] The animals with ptosis were counted 60 and 120 minutes after the administration of the compounds to be tested. Evaluation was carried out as given under the above test.

pentetrazole spasm = test: Inhibition of pentetrazole spasm; format: in vivo; conditions: white mice; for ED50: Mus musculus, po, 1 h, orally, one hour before pentetrazole 125 mg/kg intraperitoneally, tonic extensoric spasms of the hind limbs; for Therapeutical index: pentetrazole spasm, Table III
[1] = system: nicotine spasm and lethality; test: Inhibition of nicotine spasm and lethality; format: in vivo; conditions: for ED50: po, 1 h, orally, an hour before nicotine 1.4 mg/kg i.v., spasms and lethality within an hour
Method: The test was carried out according to the method of Stone. [Arch. Int. Pharmacodyn.

Hexobarbital narcosis = Hexobarbital narcosis potentiating effect; conditions: for ED50: Mus musculus, po, 1 h; for Therapeutical index: hexobarbital narcosis, white mice, Table V
Method: Groups consisting of six mice were used for each dose. The test compound was administered orally and one hour after this treatment narcosis was induced by means of a 40 mg/kg i.v. dose of hexobarbital. The control group received carrier instead of the test compound.
The ED50 values thus transformed were calculated.

[2] = Table III (pentetrazole spasm)
[3] = system: tetrabenazine ptosis on mice; conditions: mouse, in vivo, po
Method: (§1) Groups consisting of 10-20 mice each were treated perorally, with different doses of the compounds to be tested. The control group was treated only with the corresponding carrier. After 30 minutes tetrabenazine [3-isobutyl-9,10-dimethoxy-1,2,3,4,6,7-hexahydrobenzo[a]-quinolizine-2-one] was administered intraperitoneally at a dosage of 50 mg/kg. The number of animals having closed palpebral fissure was determined in each group after 30, 60, 90 and 120 minutes, resp.
(§2) The mean value of ptosis was calculated in each group, and the deviation from that of the control group (i.e. the inhibition) was expressed in percentage.

[4] = system: tetrabenazine ptosis on mice; test: Antagonism of tetrabenazine ptosis on mice; conditions: Mus musculus, po
Method: as §1, §2

CN(C)CCC=C1c2ccccc2CCc2ccccc21 [Amitryptiline, reference compound]
LD50 (in vivo): 225 mg/kg
ED50 (reserpine ptosis on mice): 65 mg/kg
Therapeutical index (reserpine ptosis on mice): 3.5

Nc1nc(N2CCOCC2)nn1C(=S)NCCCOc1cccc(CN2CCCCC2)c1 [Example 1, 1-(5-Amino-3-morpholino-1H-1,2,4-triazol-1-yl)-N-{3-[3-(1-piperidinylmethyl)phenoxyl]propyl}carbothioamide]
ED50 (pentetrazole spasm): 295 mg/kg
Therapeutical index (pentetrazole spasm): > 7
Therapeutical index ([1]; nicotine spasm and lethality, Table IV): > 29
ED50 [1]: 68 mg/kg
LD50 (in vivo): > 2000 mg/kg
ED50 (reserpine ptosis on mice): 17 mg/kg
Therapeutical index (reserpine ptosis on mice): > 117
ED50 (Hexobarbital narcosis): 50 mg/kg
Therapeutical index (Hexobarbital narcosis): > 40

CN(C)c1nc(N)n(C(=S)NCCCOc2cccc(CN3CCCCC3)c2)n1 [Example 2, 1-[5-Amino-3-dimethylamino-1H-1,2,4-triazol-1-yl]-N-{3-[3-(1-piperidinylmethyl)phenoxy]propyl}carbothioamide]
ED50 (pentetrazole spasm): 64 mg/kg
Therapeutical index (pentetrazole spasm): > 15
LD50 [2]: > 1000 mg/kg
LD50 (in vivo): > 1000 mg/kg
ED50 (Hexobarbital narcosis): 110 mg/kg
Therapeutical index (Hexobarbital narcosis): > 9

CN1CCN(c2nc(N)n(C(=S)NCCCOc3cccc(CN4CCCCC4)c3)n2)CC1 [Example 3, 1-[5-Amino-3-(4-methylpiperazinyl)-1H-1,2,4-triazol-1-yl]-N-{3-[3-(1-piperidinylmethyl)phenoxy]propyl}carbothioamide]
Therapeutical index [3]: > 90
LD50 (in vivo): > 1000 mg/kg
ED50 [4]: 11 mg/kg

C=CCN(CC=C)c1nc(N)n(C(=S)NCCCOc2cccc(CN3CCCCC3)c2)n1 [Example 5, 1-[5-Amino-3-diallylamino-1H-1,2,4-triazol-1-yl]-N-{3-[3-(1-piperidinylmethyl)phenoxy]propyl}carbothioamide]
LD50 (in vivo): > 1000 mg/kg
ED50 (Hexobarbital narcosis): 200 mg/kg
Therapeutical index (Hexobarbital narcosis): > 5

COc1ccc(CCNC(=S)n2nc(SC)nc2N)cc1OC [Example 6, 1-[5-Amino-3-methylthio-1H-1,2,4-triazol-1-yl]-N-[2-(3,4-dimethoxyphenyl)ethyl]carbothioamide]
LD50 (in vivo): > 2000 mg/kg
ED50 (reserpine ptosis on mice): 20 mg/kg
Therapeutical index (reserpine ptosis on mice): > 100

CCCC(C)(COC(N)=O)COC(N)=O [Meprobamate, reference compound]
LD50 (in vivo): 1100 mg/kg
Therapeutical index (Hexobarbital narcosis): 4.1

OC(CCN1CCCCC1)(c1ccccc1)C1CCCCC1 (stereo not shown) [Trihexyphenidyl, reference compound]
ED50 [1]: 20 mg/kg

CN1C(=O)OC(C)(C)C1=O [Trimethadion, reference compound]
LD50 [2]: 2050 mg/kg
